Experimental findings from patent US10265376B2, “Use of chelating agent and peptide antimicrobial compounds” (Consumo Em Verde Biotecnologia Das Plantas, S.A., priority 2010, dated 2019) are described below.

Experiment [1] relates to Botrytis cinerea. Put plainly: Inhibition halo for BLAD with and without EDTA against Botrytis cinerea on Potato Dextrose Agar. In kind it is cell-based. As for the experimental part: Inhibition Halo Data for BLAD with and without EDTA Against Botrytis cinerea on Potato Dextrose Agar (PDA) at 1.2% w/v of Agar (Incubation 3 Days at 25° C.): […]
The test system of experiment [2] is Erwinia pirsicina. Description: MIC of BLAD and EDTA against Erwinia pirsicina. In kind it is cell-based. To be noted: EDTA alone.
For experiment [3], the system named is Fusarium oxysporum. Put plainly: Inhibition halo for BLAD with and without EDTA against Fusarium oxysporum on Potato Dextrose Agar. In kind it is cell-based. The protocol:
Inhibition Halo Data for BLAD with and without EDTA Against Fusarium oxysporum on Potato Dextrose Agar (PDA) at 1.2% w/v of Agar (Incubation 3 Days at 25° C.): […]

Experiment [4] deals with Streptomyces griseus. Put plainly: MIC of BLAD and EDTA against Streptomyces griseus. In kind it is cell-based. As to conditions: EDTA alone.
In experiment [5] the test system is P. aeruginosa. Put plainly: Bacteriostatic/bactericidal activity of BLAD, EDTA and their combination against P. aeruginosa. In kind it is cell-based, Pseudomonas aeruginosa. As to conditions: EDTA at 1 mg/ml alone.
[6] abbreviates: EDTA 50 mM alone, PDA 1.2% w/v agar, 3 days at 25° C.
Setting [7] is: EDTA 50 mM alone, individual replicates, PDA 1.2% w/v agar, 3 days at 25° C.

For the molecule `O=C(O)CN(CCN(CC(=O)O)CC(=O)O)CC(=O)O` [EDTA, ethylenediaminetetraacetic acid], the “Average inhibition halo diameter” value in experiment [1] (setting [6]) and in experiment [3] (setting [6]) was 0 mm throughout. Also, the Inhibition halo diameter in experiment [1] (setting [7]) and in experiment [3] (setting [7]) was 0 mm in each case. For the same molecule, the “growth inhibition (in words)” value in experiment [1] (EDTA alone at 50 mM) and in experiment [3] (EDTA alone at 50 mM) was “No growth inhibition” in each case. For the same molecule, the results for the MIC in experiment [2] and in experiment [4] were 15 mM and 16 mM, respectively. In addition, the effect on growth entry in experiment [5] was “inhibits growth”.
